Results from patent US10662156B2, “Guanidine derivative and medical use thereof” (Toray Industries, Inc., priority 2016, dated 2020).

Experiments:
[1] = target: recombinant GST fusion MALT1 (human MALT1) (Homo sapiens (Human), UniProt Q9UDY8); test: Evaluation of inhibition of protease activity of MALT1 (cleavage of fluorescent peptide substrate Ac-LRSR-AMC); format: biochemical; conditions: substrate Ac-LRSR-AMC 20 μmol/L, 30° C. for 80 minutes
Summary of the method: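 GST-tagged full-length human MALT1 from E. coli ([…]) was preincubated with compound 30 min at room temperature. Buffer: MES, 150 mM NaCl, 10% sucrose, 0.1% CHAPS, 10 mM DTT, 1 mol/L ammonium citrate. Ac-LRSR-AMC (20 μM final) was then cleaved 80 min at 30 °C; AMC fluorescence (Ex 380/Em 460) gain gave % inhibition versus no-enzyme and DMSO controls.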

[2] = tested on: oxazolone-induced atopic dermatitis mouse models; test: Suppressive effect on auricular hypertrophy in oxazolone-induced atopic dermatitis mouse model; format: in vivo, BALB/c male mice; conditions: 30 mg/kg orally twice a day
Protocol: The guanidine derivative (I) or the pharmacologically acceptable salt thereof was evaluated for its exertion of a therapeutic effect on atopic dermatitis, one type of allergic disease, in an in vivo experimental system using oxazolone-induced atopic dermatitis mouse models in accordance with the method described in the literature (Plos One, Vol. 8, No. 7, e6614). Specifically, the evaluation was conducted by verifying the suppressive effect of the compound on auricular hypertrophy by using, as an index, the thickness of the auricle increased with the progression of symptoms in oxazolone-induced atopic dermatitis models.
Seven-week-old BALB/c male mice (Charles River Laboratories Japan, Inc.) were preliminarily bred and then used at the age of 8 weeks. […]
The thickness of the auricle before oxazolone administration (before induction) at the date of induction and the thickness of the auricle at post-induction day 28 were measured using a digital micrometer (Mitsutoyo Corp.), and the change therebetween (the thickness of the auricle at post-induction day 28—the thickness of the auricle before induction) was used as an index for drug efficacy evaluation. […]

recombinant GST fusion MALT1 (human MALT1), sequence (Q9UDY8 whole entry, the tested form may be a part): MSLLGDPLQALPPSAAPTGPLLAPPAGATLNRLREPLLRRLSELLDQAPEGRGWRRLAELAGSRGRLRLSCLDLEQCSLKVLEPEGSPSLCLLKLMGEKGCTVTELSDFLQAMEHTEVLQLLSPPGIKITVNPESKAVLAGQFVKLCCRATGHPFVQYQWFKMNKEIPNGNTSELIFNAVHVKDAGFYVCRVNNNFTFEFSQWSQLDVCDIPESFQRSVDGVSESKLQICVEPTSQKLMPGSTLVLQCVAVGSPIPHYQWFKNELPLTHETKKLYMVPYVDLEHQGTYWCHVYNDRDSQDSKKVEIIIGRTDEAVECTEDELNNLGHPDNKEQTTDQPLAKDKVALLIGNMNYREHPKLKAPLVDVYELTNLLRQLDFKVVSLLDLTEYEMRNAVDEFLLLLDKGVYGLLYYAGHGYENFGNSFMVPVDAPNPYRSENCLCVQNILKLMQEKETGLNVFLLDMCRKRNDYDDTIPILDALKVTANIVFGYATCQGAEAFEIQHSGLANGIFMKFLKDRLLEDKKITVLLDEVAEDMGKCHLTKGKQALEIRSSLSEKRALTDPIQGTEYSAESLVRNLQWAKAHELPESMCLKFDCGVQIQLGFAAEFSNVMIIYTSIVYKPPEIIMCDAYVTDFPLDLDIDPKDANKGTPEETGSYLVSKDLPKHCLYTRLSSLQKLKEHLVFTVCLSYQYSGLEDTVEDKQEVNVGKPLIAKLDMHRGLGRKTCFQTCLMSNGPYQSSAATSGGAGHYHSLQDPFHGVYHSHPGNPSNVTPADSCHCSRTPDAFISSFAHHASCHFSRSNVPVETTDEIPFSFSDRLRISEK

Cl.N/C(=N\S(=O)(=O)c1ccccc1)NCc1cnc(-c2ccc(Cl)cc2)c(-c2ccc(Cl)cc2)c1 [Compound of Example 2, N-(amino(((5,6-bis(4-chlorophenyl)pyridin-3-yl)methyl)amino)methylene)benzenesulfonamide Hydrochloride]
IC50 [1]: 270 nM
change in the thickness of the auricle (increase) ([2]; post-induction days 21 to 27, post-induction day 28 vs before induction, vehicle group 515 μm): 419 μm
change in the thickness of the auricle compared to the vehicle administration group (in words) ([2]; t test, P<0.05): statistically significantly decreased
